Source: patent US20150320700A1, “Geranium oil and constituents thereof for treatment of neurodegenerative diseases” (The State of Israel, Ministry of Agriculture & Ru ral …, priority 2012, published 2015)
Structures can show the parent of a compound that is named as a salt.

Assays:
[1] = biological target: T1, human erythrocytes' acetyl cholinesterase (Homo sapiens, UniProt P22303); assay: acetyl cholinesterase fluorescent activity assay; type: biochemical; settings: human erythrocytes' acetyl cholinesterase 25 mU/mL, FIGS. 2-4
T1 construct: from tissue; host or cells: human erythrocytes
Experimental: In this Example, Human erythrocytes acetyl cholinesterase (AChE) was incubated with different concentrations of geranium oil or each of its constituents.
(§1) In the results shown in FIG. 2, the different constituents were incubated with human erythrocytes' acetyl cholinesterase (25 mU/mL). The activity of acetyl cholinesterase was determined using a commercially available kit (acetyl cholinesterase fluorescent activity assay kit, Arbor assays).
Thus, inventors have tested the effect of both enantiomers on the enzymatic activity. […] The different enantiomers of citronellol were incubated with human erythrocytes' acetyl cholinesterase (25 mU/mL). The enzymatic activity was determined using a commercially available kit (acetyl cholinesterase fluorescent activity assay kit, Arbor assays).
as §1, with “In” for “In the results shown in”, “4,” for “2, the”, “constituents of geranium oil (Geraniol, Citronellol (+) and Citronellol formate)” for “constituents”

[2] = test system: primary microglial cells; assay: peroxyl radical-induced oxidation of DCFH (ROS) in primary microglial cells; type: cell-based; settings: microglial cells incubated 1 h with compound; ABAP 0.6 mM; FIG. 1
Experimental: Microglial cells were incubated for one h with (S)(−)citronellol (FIG. 1A) and (R)(+)citronellol (FIG. 1B). Primary cultures of microglial cells has been prepared according to Elmann et al., Journal of Functional Foods 2 (2010), pp. 18. As in Elmann et al. BMC Complementary and Alternative Medicine 2011, 11:98, the cultures of microglial cells were then preloaded with the non-fluorescent cell permeating compound, 2′7′-dichlorofluorescein diacetate (DCF-DA) for 30 min and washed with PBS, after which, 2,2′-Azobis(amidinopropane) (ABAP) (0.6 mM) was added and ROS levels were measured at the indicated time points. Each point on the graph represents mean±SEM of 2 experiments (n=8).

T1 sequence (P22303 32-617 isoform P22303-2 limits assumed): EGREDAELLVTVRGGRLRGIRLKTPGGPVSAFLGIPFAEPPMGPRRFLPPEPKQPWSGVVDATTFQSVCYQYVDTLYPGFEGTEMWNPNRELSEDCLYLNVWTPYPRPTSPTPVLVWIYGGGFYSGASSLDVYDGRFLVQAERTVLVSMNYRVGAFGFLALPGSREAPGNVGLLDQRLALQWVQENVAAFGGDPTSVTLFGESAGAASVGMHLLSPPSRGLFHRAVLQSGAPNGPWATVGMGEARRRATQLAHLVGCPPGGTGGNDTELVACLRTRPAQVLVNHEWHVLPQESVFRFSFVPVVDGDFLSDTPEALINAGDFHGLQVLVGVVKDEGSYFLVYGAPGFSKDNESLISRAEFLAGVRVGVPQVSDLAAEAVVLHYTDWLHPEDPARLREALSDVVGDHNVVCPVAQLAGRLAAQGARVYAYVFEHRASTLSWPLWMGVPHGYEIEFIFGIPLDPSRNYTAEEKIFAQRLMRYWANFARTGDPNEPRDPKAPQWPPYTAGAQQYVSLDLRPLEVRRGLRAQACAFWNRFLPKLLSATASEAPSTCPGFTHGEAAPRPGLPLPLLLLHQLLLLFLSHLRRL

Row | SMILES | enzymatic activity of acetyl cholinesterase [1] | enzymatic activity of acetyl cholinesterase ([1]; listed as Citronellol (+)) | peroxyl radical-induced oxidation of DCFH (ROS levels) [2] | enzymatic activity of acetyl cholinesterase ([1]; listed as (S)(−)citronellol)
1 | CC(C)[C@@H]1CC[C@@H](C)CC1=O [menthone] | inhibited the enzymatic activity |  |  | 
2 | CC(C)=CCC[C@@H](C)CCO [(R)(+)citronellol, reference compound] | not (R)(+)citronellol could inhibit the enzymatic activity | none of the constituents geraniol, Citronellol (+) and citronellol formate could inhibit AChE activity | inhibit the peroxyl radical-induced oxidation of DCFH | 
3 | CC(C)=CCC/C(C)=C/CO [geraniol, reference compound] | none of the constituents geraniol, Citronellol (+) and citronellol formate could inhibit AChE activity |  |  | 
4 | CC(C)=CCCC(C)CCOC=O (centres unmarked) [citronellol formate, reference compound] | none of the constituents geraniol, Citronellol (+) and citronellol formate could inhibit AChE activity |  |  | 
5 | CC(C)[C@H]1CC[C@@H](C)CC1=O [isomenthone] | inhibited the enzymatic activity |  |  | 
6 | C=CC(C)(O)CCC=C(C)C (centres unmarked) [linalool] | inhibited the enzymatic activity |  |  | 
7 | CC(C)=CCC[C@H](C)CCO [(S)(−)-citronellol] | inhibited the enzymatic activity |  | inhibit the peroxyl radical-induced oxidation of DCFH | could inhibit the enzymatic activity
